Experiments:
Assay in all cases: 33PanQinase panel
Format in all cases: biochemical
BLK = molecular target: T1, BLK (Homo sapiens, UniProt P51451); conditions: read-out: Residual Activity (%)
T1 construct: purchased ProQinase
Outline: (§1)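 Residual activity (%) relative to DMSO control was measured by radiometric 33P-based kinase activity assay with inhibitor at 1 µM and 1% final DMSO, across 320 wild-type kinases.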

CDK16/CycY = molecular target: T2, CDK16/CycY (Homo sapiens, UniProt Q00536); conditions: read-out: Residual Activity (%)
T2 construct: purchased ProQinase
Outline: as §1

CDK19/CycC = molecular target: T3, CDK19/CycC (Homo sapiens, UniProt Q9BWU1); conditions: read-out: Residual Activity (%)
T3 construct: purchased ProQinase
Outline: as §1

CHK2 = molecular target: T4, CHK2 (Homo sapiens, UniProt O96017); conditions: CHK2, 1 µM; read-out: Residual Activity (%)
T4 construct: purchased ProQinase
Outline: as §1

CK1-alpha1 = molecular target: T5, CK1-alpha1 (Homo sapiens, UniProt P48729); conditions: CK1-alpha1, 1 µM; read-out: Residual Activity (%)
T5 construct: purchased ProQinase
Outline: as §1

CK2-alpha2 = molecular target: T6, CK2-alpha2 (Homo sapiens, UniProt P19784); conditions: CK2-alpha2, 1 µM; read-out: Residual Activity (%)
T6 construct: purchased ProQinase
Outline: as §1

CLK4 = molecular target: T7, CLK4 (Homo sapiens, UniProt Q9HAZ1); conditions: CLK4, 1 µM; read-out: Residual Activity (%)
T7 construct: purchased ProQinase
Outline: as §1

FAK aa2-1052 = molecular target: T8, FAK aa2-1052 (Homo sapiens, UniProt Q05397); conditions: FAK aa2-1052, 1 µM; read-out: Residual Activity (%)
T8 construct: purchased ProQinase
Outline: as §1

HIPK2 = molecular target: T9, HIPK2 (Homo sapiens, UniProt Q9H2X6); conditions: HIPK2, 1 µM; read-out: Residual Activity (%)
T9 construct: purchased ProQinase
Outline: as §1

MAP3K1 = molecular target: T10, MAP3K1 (Homo sapiens, UniProt Q13233); conditions: MAP3K1, 1 µM; read-out: Residual Activity (%)
T10 construct: purchased ProQinase
Outline: as §1

MEKK3 = molecular target: T11, MEKK3 (Homo sapiens, UniProt Q99759); conditions: MEKK3, 1 µM; read-out: Residual Activity (%)
T11 construct: purchased ProQinase
Outline: as §1

MERTK = molecular target: T12, MERTK (Homo sapiens, UniProt Q12866); conditions: read-out: Residual Activity (%)
T12 construct: purchased ProQinase
Outline: as §1

MKNK1 = molecular target: T13, MKNK1 (Homo sapiens, UniProt Q9BUB5); conditions: MKNK1, 1 µM; read-out: Residual Activity (%)
T13 construct: purchased ProQinase
Outline: as §1

MST4 = molecular target: T14, MST4 (Homo sapiens, UniProt Q9P289); conditions: MST4, 1 µM; read-out: Residual Activity (%)
T14 construct: purchased ProQinase
Outline: as §1

MYLK3 = molecular target: T15, MYLK3 (Homo sapiens, UniProt Q32MK0); conditions: MYLK3, 1 µM; read-out: Residual Activity (%)
T15 construct: purchased ProQinase
Outline: as §1

NEK4 = molecular target: T16, NEK4 (Homo sapiens, UniProt P51957); conditions: NEK4, 1 µM; read-out: Residual Activity (%)
T16 construct: purchased ProQinase
Outline: as §1

PKC-beta1 = molecular target: T17, PKC-beta1 (Homo sapiens, UniProt P05771); conditions: PKC-beta1, 1 µM; read-out: Residual Activity (%)
T17 construct: purchased ProQinase
Outline: as §1

RPS6KA6 = molecular target: T18, RPS6KA6 (Homo sapiens, UniProt Q9UK32); conditions: RPS6KA6, 1 µM; read-out: Residual Activity (%)
T18 construct: purchased ProQinase
Outline: as §1

SAK = molecular target: T19, SAK (Homo sapiens, UniProt O00444); conditions: read-out: Residual Activity (%)
T19 construct: purchased ProQinase
Outline: as §1

SGK3 = molecular target: T20, SGK3 (Homo sapiens, UniProt Q96BR1); conditions: SGK3, 1 µM; read-out: Residual Activity (%)
T20 construct: purchased ProQinase
Outline: as §1

SRMS = molecular target: T21, SRMS (Homo sapiens, UniProt Q9H3Y6); conditions: read-out: Residual Activity (%)
T21 construct: purchased ProQinase
Outline: as §1

TAOK2 = molecular target: T22, TAOK2 (Homo sapiens, UniProt Q9UL54); conditions: TAOK2, 1 µM; read-out: Residual Activity (%)
T22 construct: purchased ProQinase
Outline: as §1

TTBK1 = molecular target: T23, TTBK1 (Homo sapiens, UniProt Q5TCY1); conditions: TTBK1, 1 µM; read-out: Residual Activity (%)
T23 construct: purchased ProQinase
Outline: as §1

VEGF-R2 = molecular target: T24, VEGF-R2 (Homo sapiens, UniProt P35968); conditions: VEGF-R2, 1 µM; read-out: Residual Activity (%)
T24 construct: purchased ProQinase
Outline: as §1

WNK1 = molecular target: T25, WNK1 (Homo sapiens, UniProt Q9H4A3); conditions: WNK1, 1 µM; read-out: Residual Activity (%)
T25 construct: purchased ProQinase
Outline: as §1

YES = molecular target: T26, YES (Homo sapiens, UniProt P07947); conditions: read-out: Residual Activity (%)
T26 construct: purchased ProQinase
Outline: as §1

p38-alpha = molecular target: T27, p38-alpha (Homo sapiens, UniProt Q16539); conditions: read-out: Residual Activity (%)
T27 construct: purchased ProQinase
Outline: as §1

T3 sequence (Q9BWU1 whole entry): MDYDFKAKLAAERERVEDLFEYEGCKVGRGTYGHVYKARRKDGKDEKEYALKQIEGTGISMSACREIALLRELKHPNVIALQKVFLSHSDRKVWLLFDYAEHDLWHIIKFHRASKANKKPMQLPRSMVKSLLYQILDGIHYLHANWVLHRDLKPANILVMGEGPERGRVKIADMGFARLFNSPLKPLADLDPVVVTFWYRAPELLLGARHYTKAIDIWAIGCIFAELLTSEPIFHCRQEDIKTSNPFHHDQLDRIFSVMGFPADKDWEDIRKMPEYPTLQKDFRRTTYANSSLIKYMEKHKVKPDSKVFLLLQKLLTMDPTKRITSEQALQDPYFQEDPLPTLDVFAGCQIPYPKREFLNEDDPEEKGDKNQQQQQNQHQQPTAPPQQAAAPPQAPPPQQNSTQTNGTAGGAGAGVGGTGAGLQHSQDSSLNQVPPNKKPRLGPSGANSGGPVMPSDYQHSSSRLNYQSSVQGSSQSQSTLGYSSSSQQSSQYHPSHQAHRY
T3 sequence (P24863 whole entry partner): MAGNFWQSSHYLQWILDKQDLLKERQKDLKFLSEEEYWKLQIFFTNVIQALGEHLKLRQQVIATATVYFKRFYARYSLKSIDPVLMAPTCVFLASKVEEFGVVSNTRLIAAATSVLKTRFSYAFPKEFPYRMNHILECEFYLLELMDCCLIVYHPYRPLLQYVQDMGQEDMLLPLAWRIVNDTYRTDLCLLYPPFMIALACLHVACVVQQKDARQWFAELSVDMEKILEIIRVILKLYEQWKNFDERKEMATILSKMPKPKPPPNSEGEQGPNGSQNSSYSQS
T23 sequence (Q5TCY1 whole entry): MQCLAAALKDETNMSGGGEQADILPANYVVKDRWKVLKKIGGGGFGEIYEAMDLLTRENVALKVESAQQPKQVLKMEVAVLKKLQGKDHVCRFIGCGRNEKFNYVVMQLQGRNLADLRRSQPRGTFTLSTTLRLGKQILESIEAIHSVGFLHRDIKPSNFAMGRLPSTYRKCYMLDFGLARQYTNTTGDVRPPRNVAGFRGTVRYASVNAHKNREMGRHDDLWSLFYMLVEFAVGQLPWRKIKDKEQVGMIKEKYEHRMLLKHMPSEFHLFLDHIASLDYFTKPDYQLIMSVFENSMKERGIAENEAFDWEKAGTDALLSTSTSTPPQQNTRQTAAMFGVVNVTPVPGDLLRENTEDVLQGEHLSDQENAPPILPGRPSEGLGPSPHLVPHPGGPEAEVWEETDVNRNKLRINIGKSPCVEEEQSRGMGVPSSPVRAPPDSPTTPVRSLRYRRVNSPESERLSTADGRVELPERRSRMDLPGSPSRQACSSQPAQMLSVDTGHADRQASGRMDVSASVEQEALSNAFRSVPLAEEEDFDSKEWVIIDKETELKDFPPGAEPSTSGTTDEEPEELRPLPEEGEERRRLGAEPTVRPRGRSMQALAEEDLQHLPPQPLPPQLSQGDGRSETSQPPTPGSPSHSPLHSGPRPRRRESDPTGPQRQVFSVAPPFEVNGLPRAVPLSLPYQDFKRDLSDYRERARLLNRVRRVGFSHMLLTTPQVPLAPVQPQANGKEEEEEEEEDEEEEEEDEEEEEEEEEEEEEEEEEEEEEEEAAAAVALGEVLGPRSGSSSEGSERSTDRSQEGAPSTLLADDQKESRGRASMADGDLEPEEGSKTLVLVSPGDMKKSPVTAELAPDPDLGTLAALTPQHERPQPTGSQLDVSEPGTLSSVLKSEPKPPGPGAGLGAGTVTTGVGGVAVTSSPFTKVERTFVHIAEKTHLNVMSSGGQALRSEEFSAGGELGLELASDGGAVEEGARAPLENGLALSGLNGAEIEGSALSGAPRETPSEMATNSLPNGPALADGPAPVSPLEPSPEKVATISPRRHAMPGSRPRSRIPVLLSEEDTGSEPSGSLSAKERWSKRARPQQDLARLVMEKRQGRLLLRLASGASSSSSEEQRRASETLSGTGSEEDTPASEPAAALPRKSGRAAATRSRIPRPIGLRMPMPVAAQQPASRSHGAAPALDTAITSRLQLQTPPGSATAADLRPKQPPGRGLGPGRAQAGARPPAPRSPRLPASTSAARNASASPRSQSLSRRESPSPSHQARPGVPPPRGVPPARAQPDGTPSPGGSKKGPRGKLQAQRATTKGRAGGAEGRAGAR
T25 sequence (Q9H4A3 whole entry): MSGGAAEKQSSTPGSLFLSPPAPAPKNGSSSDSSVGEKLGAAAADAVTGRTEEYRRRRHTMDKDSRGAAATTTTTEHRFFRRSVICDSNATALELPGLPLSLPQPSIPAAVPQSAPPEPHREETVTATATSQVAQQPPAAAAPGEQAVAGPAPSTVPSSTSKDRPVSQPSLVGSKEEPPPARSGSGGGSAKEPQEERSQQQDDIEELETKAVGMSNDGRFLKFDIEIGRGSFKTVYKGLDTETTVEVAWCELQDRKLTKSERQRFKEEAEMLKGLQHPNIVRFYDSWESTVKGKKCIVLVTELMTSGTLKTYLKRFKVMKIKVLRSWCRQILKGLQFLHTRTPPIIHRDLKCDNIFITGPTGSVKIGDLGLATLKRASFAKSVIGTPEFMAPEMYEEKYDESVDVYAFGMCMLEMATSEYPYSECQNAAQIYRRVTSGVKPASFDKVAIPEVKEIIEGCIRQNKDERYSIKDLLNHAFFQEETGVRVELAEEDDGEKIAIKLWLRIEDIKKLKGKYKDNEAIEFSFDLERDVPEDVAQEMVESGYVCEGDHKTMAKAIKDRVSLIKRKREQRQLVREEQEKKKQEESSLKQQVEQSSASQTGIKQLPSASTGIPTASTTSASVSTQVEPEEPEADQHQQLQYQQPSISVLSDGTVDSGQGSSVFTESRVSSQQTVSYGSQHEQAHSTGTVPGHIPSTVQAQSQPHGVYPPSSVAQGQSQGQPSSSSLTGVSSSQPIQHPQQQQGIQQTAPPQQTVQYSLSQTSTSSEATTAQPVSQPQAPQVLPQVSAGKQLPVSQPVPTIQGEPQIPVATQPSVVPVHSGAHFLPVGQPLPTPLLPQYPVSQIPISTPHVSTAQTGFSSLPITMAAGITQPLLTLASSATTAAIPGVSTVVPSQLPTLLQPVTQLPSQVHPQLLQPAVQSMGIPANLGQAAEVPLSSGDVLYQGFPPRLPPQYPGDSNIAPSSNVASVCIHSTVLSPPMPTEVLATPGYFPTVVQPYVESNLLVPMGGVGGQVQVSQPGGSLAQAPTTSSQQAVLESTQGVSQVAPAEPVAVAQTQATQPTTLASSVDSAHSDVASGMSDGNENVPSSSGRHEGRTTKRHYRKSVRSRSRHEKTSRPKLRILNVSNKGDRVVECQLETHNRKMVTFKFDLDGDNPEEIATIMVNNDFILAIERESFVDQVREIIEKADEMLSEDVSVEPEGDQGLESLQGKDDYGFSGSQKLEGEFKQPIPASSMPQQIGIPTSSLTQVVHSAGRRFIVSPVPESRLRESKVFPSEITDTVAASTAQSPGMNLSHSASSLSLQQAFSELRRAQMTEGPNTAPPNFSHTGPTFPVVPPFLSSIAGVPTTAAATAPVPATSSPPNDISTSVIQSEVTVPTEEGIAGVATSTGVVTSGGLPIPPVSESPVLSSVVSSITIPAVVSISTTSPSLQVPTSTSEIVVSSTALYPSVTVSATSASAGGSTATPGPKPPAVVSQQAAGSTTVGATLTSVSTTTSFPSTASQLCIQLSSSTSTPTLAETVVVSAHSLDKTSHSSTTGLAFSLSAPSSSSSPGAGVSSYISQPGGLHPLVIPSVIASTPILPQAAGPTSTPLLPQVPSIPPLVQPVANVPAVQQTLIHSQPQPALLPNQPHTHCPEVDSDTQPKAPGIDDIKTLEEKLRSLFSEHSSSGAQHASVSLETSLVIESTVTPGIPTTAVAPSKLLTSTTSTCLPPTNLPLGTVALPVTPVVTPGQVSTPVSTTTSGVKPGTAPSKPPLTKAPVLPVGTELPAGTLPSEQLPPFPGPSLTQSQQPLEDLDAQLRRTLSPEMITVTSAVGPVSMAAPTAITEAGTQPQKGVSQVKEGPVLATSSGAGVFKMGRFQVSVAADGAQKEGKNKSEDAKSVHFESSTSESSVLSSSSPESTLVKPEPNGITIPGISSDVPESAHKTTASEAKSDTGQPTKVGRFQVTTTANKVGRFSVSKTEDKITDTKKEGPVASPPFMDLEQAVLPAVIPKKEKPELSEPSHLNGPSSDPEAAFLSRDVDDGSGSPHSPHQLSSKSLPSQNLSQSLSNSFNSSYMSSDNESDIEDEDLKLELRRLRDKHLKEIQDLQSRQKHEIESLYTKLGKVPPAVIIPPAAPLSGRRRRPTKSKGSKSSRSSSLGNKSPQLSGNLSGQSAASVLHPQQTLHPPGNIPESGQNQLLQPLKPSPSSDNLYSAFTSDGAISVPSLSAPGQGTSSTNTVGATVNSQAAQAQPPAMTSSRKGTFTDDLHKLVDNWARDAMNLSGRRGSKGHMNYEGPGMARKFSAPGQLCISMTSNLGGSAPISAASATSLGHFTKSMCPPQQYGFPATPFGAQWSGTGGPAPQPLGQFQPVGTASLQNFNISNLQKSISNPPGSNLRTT
T4 sequence (O96017 whole entry): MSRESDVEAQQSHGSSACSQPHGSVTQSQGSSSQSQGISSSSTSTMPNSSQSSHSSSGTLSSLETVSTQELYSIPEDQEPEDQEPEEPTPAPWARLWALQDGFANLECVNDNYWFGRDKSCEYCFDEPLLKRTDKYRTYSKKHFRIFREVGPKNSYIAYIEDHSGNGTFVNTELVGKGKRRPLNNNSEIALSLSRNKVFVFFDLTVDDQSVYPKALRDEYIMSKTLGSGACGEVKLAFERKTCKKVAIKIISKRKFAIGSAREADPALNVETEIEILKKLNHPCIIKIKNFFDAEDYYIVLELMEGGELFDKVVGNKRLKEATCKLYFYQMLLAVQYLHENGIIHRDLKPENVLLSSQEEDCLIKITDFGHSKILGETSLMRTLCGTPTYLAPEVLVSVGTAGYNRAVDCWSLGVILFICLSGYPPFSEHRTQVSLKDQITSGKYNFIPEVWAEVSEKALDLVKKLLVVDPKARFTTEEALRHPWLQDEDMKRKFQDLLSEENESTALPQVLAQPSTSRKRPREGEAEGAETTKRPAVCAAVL

COc1ccc(-c2cc(C(=O)Nc3cc(-c4c(-c5ccc(F)cc5)noc4C(C)C)ccn3)n(CC3NCC(O)C3O)c2)cc1 (stereo not drawn) [29d]
remaining activity at 1 µM (BLK): 110%
remaining activity at 1 µM (CDK16/CycY): 112%
remaining activity at 1 µM (CDK19/CycC): 84%
remaining activity at 1 µM (CHK2): 97%
remaining activity at 1 µM (CK1-alpha1): 16%
remaining activity at 1 µM (CK2-alpha2): 111%
remaining activity at 1 µM (CLK4): 104%
remaining activity at 1 µM (FAK aa2-1052): 120%
remaining activity at 1 µM (HIPK2): 83%
remaining activity at 1 µM (MAP3K1): 94%
remaining activity at 1 µM (MEKK3): 104%
remaining activity at 1 µM (MERTK): 76%
remaining activity at 1 µM (MKNK1): 82%
remaining activity at 1 µM (MST4): 108%
remaining activity at 1 µM (MYLK3): 87%
remaining activity at 1 µM (NEK4): 108%
remaining activity at 1 µM (PKC-beta1): 116%
remaining activity at 1 µM (RPS6KA6): 89%
remaining activity at 1 µM (SAK): 92%
remaining activity at 1 µM (SGK3): 97%
remaining activity at 1 µM (SRMS): 127%
remaining activity at 1 µM (TAOK2): 105%
remaining activity at 1 µM (TTBK1): 104%
remaining activity at 1 µM (VEGF-R2): 110%
remaining activity at 1 µM (WNK1): 90%
remaining activity at 1 µM (YES): 126%
remaining activity at 1 µM (p38-alpha): 17%
